Laboratory results reported in PMC10343279, “The Cytotoxic Activity of Dammarane-Type Triterpenoids Isolated from the Stem Bark of Aglaia cucullata (Meliaceae)” (Molecules, 2023).
Read-outs that look alike come from different tables or passages of the source.

Columns and labels:
Type in all cases: cell-based
[1] = system: MCF-7 breast cancer cell line; experiment: PrestoBlue cytotoxicity assay against MCF-7 breast cancer cells; conditions: MCF-7, PrestoBlue, 24 h incubation, run twice and averaged
Description: (§1) A normal cell (CV-1 kidney fibroblast cells) and two cancer cell lines (MCF-7 breast cancer and B16-F10 melanoma cells) were used to test the cytotoxic activities of compounds 1–7. In this experiment, two wavelengths (570 and 600 nm) were used because the measured cells were live cells so, to obtain the value/number of live cells, measurements were carried out at two wavelengths, namely before the reaction (blue) and after the reaction (pink) to produce a corrected absorbance value, which was interpreted as the number live cells after treatment. The results arising from the experiments, along with IC50 calculation graphs and cell morphology at each sample concentration, are presented in Figures S38–S58.
(§2) The PrestoBlue assay was utilized to conduct the cytotoxic bioassay. Additionally, Presto Blue reagent from Thermo Fisher Scientific, Uppsala, Sweden, was used to measure cell viability, which allowed for rapid evaluation of various resazurin-based cells. The rate of proliferation of the samples was then determined quantitatively through live-cell reduction capabilities. According to the findings, healthy cells kept a reduced habitat in their cytoplasm. By reducing resorufin (purple) with absorbance or fluorescence outputs, resazurin reduction (blue) acted as a viability indicator. The conversion correlated with the number of cells that were metabolically active. MCF-7, B16-F10, and CV-1 cell lines were cultured until they reached 70% confluence, and then they were removed, counted with a hemocytometer, and diluted with complete culture RPMI media. A total of 170,000 cells per well in 96-well plates with the samples were used. After an overnight growth period, the samples were treated with compounds 1–7 at escalating concentrations ([…]) in PBS, with 2% DMSO as the co-solvent. Additionally, cisplatin served as the positive control, and all samples were incubated for 24 h at 37° C with 5% CO2. Following incubation, the medium was immediately changed to 10 μL of the PrestoBlue reagent in 90 μL of the RPMI medium. As resorufin began to form, the color of the plates changed from blue to purple after being incubated for another one to two hours. Using a microplate reader to measure absorbance at 570 nm and 600 nm, the concentration required to inhibit growth by 50% was calculated as the IC50 value. […] The results of each test and analysis were averaged after being run twice.

[2] = system: B16-F10 melanoma cell line; experiment: PrestoBlue cytotoxicity assay against B16-F10 melanoma cells; conditions: 24 h incubation, run twice and averaged
Description: as §1, §2

[3] = system: CV-1 normal kidney fibroblast cell line; experiment: cells
Description: as §1, §2

[4] = Homo sapiens, MCF7, read-out: IC50 for MCF-7
[5] = Homo sapiens, MCF7, read-out: IC50 for MCF-7 (μg/mL)
[6] = Mus musculus, read-out: IC50 for B16-F10
[7] = Mus musculus, read-out: IC50 for B16-F10 (μg/mL)
[8] = Fibroblast, CV-1 normal cells, PrestoBlue, 24 h incubation, run twice and averaged, read-out: IC50 for CV-1
[9] = Fibroblast, CV-1 normal cells, PrestoBlue, 24 h incubation, run twice and averaged, read-out: IC50 for CV-1 (μg/mL)

SMILES	IC50 [1, 4] [µM]	IC50 [1, 5] [µg/mL]	IC50 [2, 6] [µM]	IC50 [2, 7] [µg/mL]	IC50 [3, 8] [µM]	IC50 [3, 9] [µg/mL]	cell death based on morphological observation [3]	IC50 for MCF-7 [1] [µg/mL]	IC50 ([1]; read-out: IC50 for MCF-7) [µM]	IC50 for B16-F10 [2] [µg/mL]	IC50 ([2]; read-out: IC50 for B16-F10) [µM]	IC50 for CV-1 ([3]; CV-1 normal cells, PrestoBlue, 24 h incubation, run twice and averaged) [µg/mL]	IC50 ([3]; CV-1 normal cells, PrestoBlue, 24 h incubation, run twice and averaged, read-out: IC50 for CV-1) [µM]
CC(C)(O)[C@@H]1CC[C@@](C)(C2CC[C@]3(C)C2CCC2[C@@]4(C)CC[C@@H](O)C(C)(C)C4CC[C@]23C)O1 (stereo partly drawn) [Compound 1, 20S,24S-epoxy-3α,25-dihydroxy-dammarane]	142	65.5	97.3	44.8	174	80.1							
C=C(CCC=C(C)C)C1CC[C@]2(C)C1CC[C@@H]1[C@@]3(C)CCC(=O)C(C)(C)C3CC[C@]12C (stereo partly drawn) [Compound 2, dammaradienone]	132	56.1	129	54.8	195	82.8							
CC(=O)O[C@@H]1CC[C@@]2(C)C(CC[C@]3(C)C2CCC2C([C@]4(C)CC[C@@H](C(C)(C)O)O4)CC[C@]23C)C1(C)C (stereo partly drawn) [Compound 7, 3α-acetyl-20S,24S-epoxy-3α,25-dihydroxydammarane]	195	97.9	158	79.4	> 300	> 300	no cell death at all concentration levels						
C=C(C)[C@@H]1CC[C@]2(C)[C@H](CC[C@@H]3[C@@H]([C@]4(C)CC[C@@H](C(C)(C)O)O4)CC[C@]32C)[C@@]1(C)CCC(=O)O [Compound 4, eichlerianic acid]	> 300	> 300	> 300	275	288	137							
N.N.[Cl][Pt][Cl] [Cisplatin, cisplatin, reference compound]								53.00	176	43.00	143	43.00	143
CC(C)=CCC[C@](C)(O)C1CC[C@]2(C)C1CC[C@@H]1[C@@]3(C)CCC(=O)C(C)(C)C3CC[C@]12C (stereo partly drawn) [Compound 3, 20S-hydroxy-dammar-24-en-3-on]	> 300	142	111	49.1	> 300	> 300	no cell death at all concentration levels						
COC1CC[C@@](C)(C2CC[C@]3(C)C2CCC2[C@@]4(C)CCC(=O)C(C)(C)C4CC[C@]23C)O1 (stereo partly drawn) [Compound 5, (20S,24RS)-23,24-epoxy-24-methoxy-25,26,27-tris-nor dammar-3-one]	133	57.3	105	45.4	> 300	> 300	no cell death at all concentration levels						
CC(=O)O[C@@H]1CC[C@@]2(C)C(CC[C@]3(C)C2CCC2C([C@]4(C)CCC(=O)O4)CC[C@]23C)C1(C)C (stereo partly drawn) [Compound 6, 3α-acetyl-cabraleahydroxy lactone]	274	126	274	126	285	131							
